Test results as given in patent US6989387B2, “Nitro and amino substituted topoisomerase agents” (Rutgers, The State University of New Jersey, priority 2002, dated 2006).
Where two headings read alike, the source gives them in different places.

Experiments:
[1] = tested on: RPMI8402 cells; assay: Test B: MTT-microtiter plate tetrazolinium cytotoxicity assay, RPMI8402; assay type: cell-based, human; conditions: RPMI 8402, 96 h, read-out: Cytotoxicity (IC50; μM) RPMI8402
Description: (§1) The cytotoxicity was determined using the MTT-microtiter plate tetrazolinium cytotoxicity assay (MTA—See Mosmann, T., J. Immunol. Methods 1983, 65, 55–63; Carmichael, J., et al., Cancer Res. 1987, 47, 936–942; and Denizot, F., et al., J. Immunol. Methods 1986, 89, 271–277). […] The cytotoxicity assay was performed using 96-well microtiter plates. Cells were grown in suspension at 37° C. in 5% CO2 and maintained by regular passage in RPMI medium supplemented with 10% heat- inactivated fetal bovine serum, L-glutamine (2 mM), penicillin (100 U/mL), and streptomycin (0.1 mg/mL). […] For determination of IC50, cells were exposed continuously for 4 days to varying concentrations of drug, and MTT assays were performed at the end of the fourth day. […] All assays were performed at least twice in 6 replicate wells.

[2] = target: T1, human topoisomerase I (Homo sapiens, UniProt P11387); assay: Test A: topoisomerase I-mediated DNA cleavage assay; assay type: biochemical; conditions: relative effective concentration, relative to topotecan = 1, producing the same cleavage of plasmid DNA in presence of human TOP1
T1 construct: unnamed fusion partner (recombinant fusion protein, T7 expression system); made in house; host or cells: E. coli
T1 sequence (P11387 1-765): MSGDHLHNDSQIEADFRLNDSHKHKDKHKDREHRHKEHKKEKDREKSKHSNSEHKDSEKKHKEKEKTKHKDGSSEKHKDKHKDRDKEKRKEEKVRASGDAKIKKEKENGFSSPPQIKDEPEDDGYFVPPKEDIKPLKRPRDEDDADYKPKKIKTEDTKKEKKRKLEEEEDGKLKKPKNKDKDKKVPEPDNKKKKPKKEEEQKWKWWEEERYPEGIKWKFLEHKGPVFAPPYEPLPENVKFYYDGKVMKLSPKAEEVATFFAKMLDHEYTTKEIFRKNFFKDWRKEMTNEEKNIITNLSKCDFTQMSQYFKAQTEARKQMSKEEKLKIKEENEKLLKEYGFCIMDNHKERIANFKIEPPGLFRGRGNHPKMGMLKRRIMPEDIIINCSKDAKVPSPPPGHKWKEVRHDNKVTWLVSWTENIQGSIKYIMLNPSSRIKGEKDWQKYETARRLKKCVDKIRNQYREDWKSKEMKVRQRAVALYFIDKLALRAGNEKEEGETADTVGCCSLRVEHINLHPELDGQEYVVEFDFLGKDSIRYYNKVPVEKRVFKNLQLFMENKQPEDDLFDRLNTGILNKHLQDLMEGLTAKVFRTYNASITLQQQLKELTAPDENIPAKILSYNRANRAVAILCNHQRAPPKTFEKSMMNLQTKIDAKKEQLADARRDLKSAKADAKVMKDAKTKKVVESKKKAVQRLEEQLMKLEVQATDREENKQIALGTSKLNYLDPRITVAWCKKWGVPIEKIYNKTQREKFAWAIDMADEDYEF
Description: Test A. Topoisomerase-Mediated DNA Cleavage Assays
Human topoisomerase I was expressed in E. Coli and isolated as a recombinant fusion protein using a T7 expression system as described by Gatto, B., et al., Cancer Res. 1996, 56, 2795–2800. Plasmid YepG was purified by the alkali lysis method followed by phenol deproteination and CsCl/ethidium isopycnic centrifugation method as described by Maniatis, T., et al., J. Molecular Cloning, a Laboratory Manual; Cold Spring Harbor Laboratory: Cold Spring Harbor, N.Y. 1982; pp 149–185. The end-labeling of the plasmid was accomplished by digestion with a restriction enzyme followed by end-filling with Klenow polymerase as previously described by Tewey, K. M., et al., Science 1984, 226, 466–468. The cleavage assays were performed as previously reported (see Gatto, B., et al., Cancer Res. 1996, 56, 2795–2800; and Wang, H., et al., Biochemistry 2001, 40; 3316–3323). The drug and the DNA in presence of topoisomerase I was incubated for 30 minutes at 37° C. The reactions were terminated by the addition of 5 μl of 5% SDS and 1 mg/ml […] with an additional 1 hour of incubation at 37° C. Samples were then alkali denatured by the addition of NaOH, EDTA, sucrose, and bromophenol blue to final concentrations of 75 mM, 2.5%, and 0.05 mg/ml, respectively, prior to loading onto a neutral agarose gel. After development of the gels, typically 24-hour exposure was used to obtain autoradiograms outlining the extent of DNA fragmentation.

[3] = tested on: CPT-K5 cells; assay: Test B: MTT-microtiter plate tetrazolinium cytotoxicity assay, CPT-K5; assay type: cell-based; conditions: Homo sapiens, CPT-K5, 96 h, read-out: Cytotoxicity (IC50; μM) CPT-K5
Description: as §1

Row | Compound | TOP1-mediated DNA Cleavage (REC) [2] | melting point [°C] | IC50 ([1]; human lymphoblast RPMI8402, 4 days of continuous drug exposure, MTT) [µM] | IC50 ([1]; Homo sapiens) [µM] | IC50 [3] [µM]
1 | CC[C@@]1(O)C(=O)OCc2c1cc1n(c2=O)Cc2cc3ccccc3nc2-1 [Camptothecin, reference compound] | 0.5 | – | 0.005 | – | –
2 | CN(C)CCn1c(=O)c2ccccc2c2cnc3cc4c(cc3c21)OCO4 [Compound 3, 2,3-Methylenedioxy-5-[2-(N,N-dimethylamino)ethyl]-5H-dibenzo[c,h]1,6-naphthyridin-6-one, reference compound] | 6 | – | – | 0.06 | 0.95
3 | CN(C)CCn1c(=O)c2cccc([N+](=O)[O-])c2c2cnc3cc4c(cc3c21)OCO4 [Compound 6a, 10-Nitro-2,3-methylenedioxy-5-[2-(N,N-dimethylamino)Ethyl]-5H-dibenzo[c,h][1,6]naphthyridin-6-one] | 1000 | 189 to 190 | – | 4.8 | > 10
4 | CN(C)CCn1c(=O)c2cccc(N)c2c2cnc3cc4c(cc3c21)OCO4 [Compound 6b, 10-Amino-2,3-methylenedioxy-5-[2-(N,N-dimethylamino)ethyl]-5H-dibenzo[c,h][1,6]naphthyridin-6-one] | 15 | 223 to 224 | – | 0.34 | 3.2
5 | CC[C@@]1(O)C(=O)OCc2c1cc1n(c2=O)Cc2cc3c(CN(C)C)c(O)ccc3nc2-1 [Topotecan, reference compound] | 1 | – | – | 0.012 | > 50
6 | COc1cc([C@@H]2c3cc4c(cc3[C@@H](O[C@@H]3O[C@@H]5CO[C@@H](c6cccs6)O[C@H]5[C@H](O)[C@H]3O)[C@H]3COC(=O)[C@H]23)OCO4)cc(OC)c1O [VM-26, reference compound] | >1000 | – | – | 0.22 | 0.28

Further lines, with some results ahead:

Row | TOP1-mediated DNA Cleavage (REC) [2] | melting point [°C] | Compound | IC50 ([1]; human lymphoblast RPMI8402, 4 days of continuous drug exposure, MTT) [µM] | IC50 ([1]; Homo sapiens) [µM] | IC50 [3] [µM]
7 | 0.2 | 219 to 220 | CN(C)CCn1c(=O)c2cc([N+](=O)[O-])ccc2c2cnc3cc4c(cc3c21)OCO4 [Compound 4a, 8-Nitro-2,3-methylenedioxy-5-[2-(N,N-dimethylamino)ethyl]-5H-dibenzo[c,h][1,6]naphthyridin-6-one] | – | 0.003 | 0.33
8 | 8.0 | 245 to 246 | CN(C)CCn1c(=O)c2cc(N)ccc2c2cnc3cc4c(cc3c21)OCO4 [Compound 4b, 8-Amino-2,3-methylenedioxy-5-[2-(N,N-dimethylamino)ethyl]-5H-dibenzo[c,h][1,6]naphthyridin-6-one] | – | 0.08 | 0.38
9 | 0.1 | 258 to 259 | CN(C)CCn1c(=O)c2ccc([N+](=O)[O-])cc2c2cnc3cc4c(cc3c21)OCO4 [Compound 5a, 9-Nitro-2,3-methylenedioxy-5-[2-(N,N-Dimethylamino)Ethyl]-5H-dibenzo[c,h][1,6]naphthyridin-6-one] | – | 0.002 | 2.8
10 | 0.5 | 300 to 301 | CN(C)CCn1c(=O)c2ccc(N)cc2c2cnc3cc4c(cc3c21)OCO4 [Compound 5b, 9-Amino-2,3-methylenedioxy-5-[2-(N,N-dimethylamino)ethyl]-5H-dibenzo[c,h][1,6]naphthyridin-6-one] | – | 0.025 | 1
